Results as given in the CheMixHub viscosity set.
± gives the uncertainty stated by the source.

Assay: xn = mol fraction of the nth substance listed

C=Cc1ccccc1 + CN(C)C=O
viscosity [mPa·s], 101.33 kPa
Conditions	x1 = 0.109	x1 = 0.2013	x1 = 0.2959	x1 = 0.3998	x1 = 0.5052	x1 = 0.6012	x1 = 0.6979	x1 = 0.8049	x1 = 0.8976
298.15 K	0.831 ± 0.006	0.845 ± 0.006	0.854 ± 0.006	0.858 ± 0.006	0.86 ± 0.006	0.856 ± 0.006	0.847 ± 0.006	0.825 ± 0.006	0.794 ± 0.005
303.15 K	0.78 ± 0.006	0.79 ± 0.006	0.801 ± 0.006	0.804 ± 0.006	0.802 ± 0.006	0.798 ± 0.006	0.79 ± 0.005	0.768 ± 0.005	0.735 ± 0.005
308.15 K	0.732 ± 0.006	0.742 ± 0.006	0.749 ± 0.006	0.75 ± 0.005	0.749 ± 0.005	0.746 ± 0.005	0.739 ± 0.005	0.717 ± 0.005	0.685 ± 0.005

CC(=O)c1ccc(Cl)cc1 + CN(C)c1ccccc1
viscosity [mPa·s], 101 kPa
Conditions	303.15 K	308.15 K
x2 = 0.0685	2.238 ± 0.027	2.175 ± 0.027
x2 = 0.1369	2.129 ± 0.026	2.065 ± 0.025
x2 = 0.2085	2.019 ± 0.025	1.954 ± 0.024
x2 = 0.2801	1.913 ± 0.024	1.849 ± 0.023
x2 = 0.3517	1.816 ± 0.023	1.752 ± 0.022
x2 = 0.4754	1.663 ± 0.021	1.597 ± 0.021
x2 = 0.551	1.576 ± 0.02	1.511 ± 0.02
x2 = 0.6023	1.53 ± 0.02	1.46 ± 0.019
x2 = 0.6538	1.478 ± 0.02	1.409 ± 0.019
x2 = 0.7316	1.404 ± 0.019	1.335 ± 0.018
x2 = 0.7852	1.355 ± 0.018	1.288 ± 0.018
x2 = 0.8376	1.307 ± 0.018	1.243 ± 0.017
x2 = 0.9175	1.24 ± 0.017	1.177 ± 0.017

CC(=O)c1ccc(Cl)cc1 + CNC(C)=O
308.15 K, 101 kPa
Conditions	viscosity [mPa·s]
x1 = 0.0644	3.273 ± 0.037
x1 = 0.1311	3.223 ± 0.037
x1 = 0.2036	3.141 ± 0.036
x1 = 0.2825	3.035 ± 0.035
x1 = 0.3696	2.906 ± 0.034
x1 = 0.4664	2.765 ± 0.033
x1 = 0.5774	2.604 ± 0.031
x1 = 0.7003	2.452 ± 0.03
x1 = 0.8405	2.331 ± 0.029

BrC(Br)Br + CO
318 K, 101.33 kPa
Conditions	viscosity [mPa·s]
x1 = 0.163	0.6935 ± 0.039
x1 = 0.3122	0.8844 ± 0.039
x1 = 0.4563	1.043 ± 0.039
x1 = 0.7234	1.261 ± 0.039
x1 = 0.8987	1.383 ± 0.039

C=Cc1ccccc1 + CO
viscosity [mPa·s], 101.33 kPa
Conditions	x1 = 0.1005	x1 = 0.192	x1 = 0.3007	x1 = 0.4018	x1 = 0.4981	x1 = 0.5994	x1 = 0.7011	x1 = 0.8049	x1 = 0.8981
298.15 K	0.591 ± 0.032	0.623 ± 0.033	0.65 ± 0.034	0.669 ± 0.035	0.679 ± 0.036	0.686 ± 0.036	0.692 ± 0.036	0.701 ± 0.037	0.706 ± 0.037
303.15 K	0.55 ± 0.03	0.583 ± 0.031	0.608 ± 0.033	0.618 ± 0.033	0.634 ± 0.034	0.642 ± 0.034	0.646 ± 0.034	0.655 ± 0.035	0.661 ± 0.035
308.15 K	0.515 ± 0.029	0.543 ± 0.03	0.569 ± 0.031	0.587 ± 0.032	0.594 ± 0.032	0.598 ± 0.032	0.602 ± 0.032	0.61 ± 0.033	0.617 ± 0.033
